Measured values published in the NIST ThermoML archive (doi:10.1016/j.jct.2012.12.006).
“And” between values parts separate entries of the source, which are not always exact repeats. Identical values can stand only once.

Key:
[1] = for vapor or sublimation pressure: Calculated from knudsen effusion weight loss; for Triple point temperature: DTA
[2] = Molar enthalpy of transition or fusion; settings: DSC

NC(=O)c1cccc(N)c1 [3-aminobenzamide]
[1], Crystal
Settings | vapor or sublimation pressure
358.14 K | 3.7e-05 kPa and 3.8e-05 kPa
360.19 K | 4.8e-05 kPa and 4.7e-05 kPa
362.14 K | 5.9e-05 kPa and 5.8e-05 kPa and 6e-05 kPa
364.14 K | 7.5e-05 kPa
366.17 K | 9.4e-05 kPa
368.15 K | 0.000116 kPa and 0.000114 kPa and 0.000117 kPa
370.15 K | 0.000144 kPa and 0.000146 kPa and 0.000143 kPa
372.19 K | 0.000179 kPa and 0.000177 kPa and 0.000176 kPa
374.13 K | 0.000218 kPa and 0.000216 kPa and 0.000222 kPa
376.15 K | 0.000276 kPa and 0.000275 kPa and 0.000274 kPa
378.18 K | 0.000342 kPa and 0.000338 kPa
380.14 K | 0.00042 kPa and 0.000406 kPa and 0.000405 kPa

Settings | Molar enthalpy of transition or fusion, [2] [kcal/mol] | Triple point temperature, [1] [K]
Crystal 1 | 4.85 | 387.5
Crystal 2 | 0.789 | 352.4

NC(=O)c1ccc(N)cc1 [4-aminobenzamide]
[1], Crystal
Settings | vapor or sublimation pressure
389.14 K | 0.000125 kPa and 0.000124 kPa
391.15 K | 0.000154 kPa and 0.000156 kPa and 0.000152 kPa
393.14 K | 0.000185 kPa and 0.000182 kPa and 0.000187 kPa
395.15 K | 0.000228 kPa and 0.000226 kPa
397.15 K | 0.000271 kPa and 0.000279 kPa
399.14 K | 0.00033 kPa and 0.000332 kPa and 0.000335 kPa
401.16 K | 0.000407 kPa and 0.000411 kPa
403.15 K | 0.000497 kPa and 0.000495 kPa and 0.000498 kPa
405.14 K | 0.000597 kPa and 0.000591 kPa and 0.000602 kPa
407.19 K | 0.000728 kPa and 0.000721 kPa
409.2 K | 0.000873 kPa and 0.000868 kPa and 0.000883 kPa
411.15 K | 0.001054 kPa and 0.001042 kPa and 0.001008 kPa

Crystal
Settings | Molar enthalpy of transition or fusion [kcal/mol] | Triple point temperature [K]
[1] | – | 457.6
[2] | 7.17 | –

NC(=O)c1ccccc1N [anthranilamide]
[1], Crystal
Settings | vapor or sublimation pressure
335.11 K | 9.5e-05 kPa and 9.6e-05 kPa
337.17 K | 0.000121 kPa and 0.00012 kPa
339.17 K | 0.00015 kPa and 0.000149 kPa and 0.000152 kPa
341.1 K | 0.00019 kPa and 0.000188 kPa and 0.000187 kPa
343.16 K | 0.000237 kPa and 0.000232 kPa and 0.000236 kPa
345.16 K | 0.00029 kPa and 0.000285 kPa and 0.000298 kPa
347.11 K | 0.000359 kPa and 0.000357 kPa
349.16 K | 0.000445 kPa and 0.000435 kPa and 0.000441 kPa
351.17 K | 0.000539 kPa and 0.00053 kPa and 0.000545 kPa
353.12 K | 0.000667 kPa and 0.000663 kPa
355.16 K | 0.00082 kPa and 0.000826 kPa and 0.000806 kPa
357.16 K | 0.000993 kPa and 0.000994 kPa

Crystal
Settings | Molar enthalpy of transition or fusion [kcal/mol] | Triple point temperature [K]
[1] | – | 384.4
[2] | 5 | –
